The values below come from patent US6034086A, “Trifluoromethylquinolinecarboxylic acid derivative” (priority 1994, dated 2000).

Structures are written as SMILES. In brackets after ≈: the same amount, converted by molar mass. Read-outs that look alike come from different tables or passages of the source.

Assay [1] has as its system HIV. The assay is described as follows: cellular disorder-suppressing activity (anti-HIV activity) in HIV-infected MT-4 cells, MTT, method of R. Pauwel et al. The format is cell-based. Particulars: for EC50: Human immunodeficiency virus 1, MT4, 120 h, HIV-infected MT-4 cells, 37° C., 5 days, 5% carbon dioxide, MTT, read-out: EC50 (50% cellular disorder-suppressing activity against the HIV-infected cells). The procedure: That is, MT-4 cells were centrifuged (1000×g, 5 minutes), and a cell-floating solution in which the resulting cellular sediments were suspended in a RPMI-1640 medium containing no serum was inoculated with HIV. The mixture was cultured at 37° C. for 1 hour and then added to a RPMI-1640 medium to which 10% bovine fetal serum was added (hereinafter referred to as the serum medium), and the mixture was washed and centrifuged (1000×g, 5 minutes). The HIV-infected cells thus obtained and HIV-non-infected cells were suspended in the serum media in an amount of 4×10^5 /ml, respectively, and each 100 μl of the suspensions were apportioned to the respective wells of a multiwell with 96 wells for tissue culture. Each 100 μl of the compounds which had been previously diluted with the serum medium stepwisely were apportioned to these respective wells, and then the mixtures were left to stand and cultured at 37° C. for 5 days in the presence of 5% carbon dioxide. In the same manner, the HIV-infected cells and the HIV-non-infected cells to which the compound was not added were cultured. […] It was confirmed that no mycoplasma was contained in the cell solution and the virus-inoculated solution.
The cellular disorder-suppressing activity against the HIV-non-infected cells to which the compound was not added was defined as 100%, and the cellular disorder-suppressing activity against the HIV-infected cells to which the compound was not added was defined as 0%.

Assay [2] relates to HIV. Particulars: AIDS 4, 1283 (1990) for DR-3355; WO 90/13542 for the others; cited from earlier work.
Where [3] appears, read: method of R. Pauwel et al., statement in background section.

The EC50 is the concentration at which the effect is half-maximal.

Regarding `O=C(O)c1cn(C2CC2)c2cc(N3CCNCC3)c(F)cc2c1=O` [Ciprofloxacin], the “cellular disorder-suppressing activity to HIV-infected cells (anti-HIV activity), in words” value (“cellular disorder-suppressing activity” below) with HIV [1] was “no anti-HIV activity was also recognized”. Moreover, the “anti-HIV activity reported in literature, in words” value (from here on “anti-HIV activity reported”) in the assay on HIV [2] was “anti-HIV activities”.

Take `C[C@H]1COc2c(N3CCN(C)CC3)c(F)cc3c(=O)c(C(=O)O)cn1c23` [DR-3355]: the “cellular disorder-suppressing activity” value in the assay with HIV [1] (setting [3]) is recorded as “no anti-HIV activity was recognized”. In addition, in the assay with HIV [2], the “anti-HIV activity reported” value was “anti-HIV activity”.

As to `CN1CCN(c2cc3c(cc2F)c(=O)c(C(=O)O)cn3-c2ccc(F)cc2)CC1` [Difloxacin], the “cellular disorder-suppressing activity” value in the assay with HIV [1] (setting [3]) is reported as “no anti-HIV activity was also recognized”. Besides, the “anti-HIV activity reported” value in the assay on HIV [2] is given as “anti-HIV activities”.

Consider `CCn1cc(C(=O)O)c(=O)c2cc(F)c(N3CCNCC3)nc21` [Enoxacin], for which, in the assay with HIV [1] (setting [3]), the “cellular disorder-suppressing activity” value is “no anti-HIV activity was also recognized”. In addition, in the assay on HIV [2], the “anti-HIV activity reported” value is “anti-HIV activities”.

As to `O=C(O)c1cn(C2CC2)c2c(C(F)(F)F)c(N3CCN(c4ccccn4)CC3)c(F)cc2c1=O` [Example 2, 1-cyclopropyl-6-fluoro-8-trifluoromethyl-1,4-dihydro-4-oxo-7-[4-(2-pyridyl)piperazin-1-yl]quinoline-3-carboxylic acid], the concentration giving a half-maximal response (EC50) with HIV [1] is 0.02 µg/mL (≈ 0.042 µM).

In the case of `Cn1cc(C(=O)O)c(=O)c2cc(F)c(N3CCN(c4ncccn4)CC3)c(C(F)(F)F)c21` [Example 8, 6-fluoro-8-trifluoromethyl-1,4-dihydro-4-oxo-1-methyl-7-[4-(2-pyrimidinyl)piperazin-1-yl]quinoline-3-carboxylic acid], the concentration for a half-maximal effect (EC50) in the assay with HIV [1] came to 0.02 µg/mL (≈ 0.0443 µM).

For the compound `Cn1cc(C(=O)O)c(=O)c2cc(F)c(N3CCN(c4ccccn4)CC3)c(C(F)(F)F)c21` [Example 9, 6-fluoro-8-trifluoromethyl-1,4-dihydro-4-oxo-1-methyl-7-[4-(2-pyridyl)piperazin-1-yl]quinoline-3-carboxylic acid], in the assay on HIV [1], the EC50 is 0.005 µg/mL (≈ 0.0111 µM).

On to `CCn1cc(C(=O)O)c(=O)c2cc(F)c(N3CCN(c4ccccn4)CC3)c(C(F)(F)F)c21` [Example 11, 1-ethyl-6-fluoro-8-trifluoromethyl-1,4-dihydro-4-oxo-7-[4-(2-pyridyl)piperazin-1-yl]quinoline-3-carboxylic acid], for which the half-maximal effective concentration (EC50) with HIV [1] was found to be 0.01 µg/mL (≈ 0.0215 µM).

With `Cn1cc(C(=O)O)c(=O)c2cc(F)c(N3CCN(c4ccc(F)cc4)CC3)c(C(F)(F)F)c21` [Example 22, 6-fluoro-8-trifluoromethyl-1,4-dihydro-4-oxo-1-methyl-7-[4-(4-fluorophenyl)piperazin-1-yl]quinoline-3-carboxylic acid], in the assay with HIV [1], the EC50 was 0.0096 µg/mL (≈ 0.0205 µM).

Take `Cn1cc(C(=O)O)c(=O)c2cc(F)c(N3CCN(c4nccs4)CC3)c(C(F)(F)F)c21` [Example 23, 6-fluoro-8-trifluoromethyl-1,4-dihydro-4-oxo-1-methyl-7-[4-(2-thiazolyl)piperazin-1-yl]quinoline-3-carboxylic acid]: the half-maximal effective concentration (EC50) in the assay on HIV [1] came out at 0.011 µg/mL (≈ 0.0241 µM).

For `CCn1cc(C(=O)O)c(=O)c2cc(F)c(N3CCNC(C)C3)c(F)c21` (centres unmarked) [Lomefloxacin], the “cellular disorder-suppressing activity” value with HIV [1] (setting [3]) is recorded as “no anti-HIV activity was also recognized”. In the assay with HIV [2], the “anti-HIV activity reported” value is listed as “anti-HIV activities”.

With `CCn1cc(C(=O)O)c(=O)c2cc(F)c(N3CCNCC3)cc21` [Norfloxacin], in the assay with HIV [1] (setting [3]), the “cellular disorder-suppressing activity” value is reported as “no anti-HIV activity was also recognized”. The “anti-HIV activity reported” value with HIV [2] is “anti-HIV activities”.

In the case of `NC1CCN(c2nc3c(cc2F)c(=O)c(C(=O)O)cn3-c2ccc(F)cc2F)C1` (centres unmarked) [Tosufloxacin], the “cellular disorder-suppressing activity” value in the assay on HIV [1] (setting [3]) is reported as “no anti-HIV activity was also recognized”. Besides, the “anti-HIV activity reported” value with HIV [2] is reported as “anti-HIV activities”.
